From US7534769B2, “Compositions and methods for enhancing delivery of therapeutic agents to cells” (Canji, Inc., priority 1996, dated 2009) come the findings set out here.

“Also recorded” adds a separate entry of the source.

Series [1] relates to bladder epithelium. The format is in vivo, rat.
Description: Nine female buffalo rats (Harlan Sprague Dawley) were anesthetized with isoflurane and received a single intravesical administration of a human recombinant adenovirus encoding the lacZ gene (rAd-βgal). […] The administered material was retained in the bladder for 45 minutes. The bladder were then flushed with PBS, and the animals were permitted to recover from the procedure. Two days after administration, rats were sacrificed, bladders were harvested, fixed, and whole organs were stained with an Xgal (5-Bromo-4-chloro-3-indolyl-β-D-galactoside) solution to evaluate reporter gene transfer. Xgal-stained tissues were then paraffin embedded, sectioned, and counter stained with hematoxylin and eosin.
After a 45 minute incubation, the bladders were flushed with PBS, and animals were permitted to recover from anesthesia.
The test system of series [2] is bladder, kidney and liver homogenates. Put plainly: ACNRB transgene expression by RT-PCR after intravesical administration. The format is in vivo, mouse. The method, then: After the virus was retained in the bladder for 45 minutes, the animals were permitted to recover and void. […] Following amplification (30 cycles) RT-PCR products were separated on a 10% polyacrylamide gel, stained with ethidium bromide, and photographed. […] Untreated samples and bladder samples without the reverse transcriptase (RT) provided controls for contaminating DNA.
The instilled material was retained in the bladder for approximately 45 minutes, and animals were permitted to recover from the procedure. Mice were sacrificed 1, 2, 3, 4, 5, 6, 7, and 14 days after administration (N=4/time) for analysis. Bladders, livers, and kidneys were harvested and snap frozen in liquid nitrogen for subsequent analysis.
After the virus was retained in the bladder for 45 minutes, the animals were permitted to recover. […] Transgene expression was determined using RT-PCR. Tissues were rinsed in RNAse free water, homogenized, digested in Tri-Reagent (Molecular Research Center), and total cellular RNA extracted. […] RT-PCR was performed in the Perkin Elmer 9600 GeneAmp PCR System. Cycling conditions were 10 min at 65° C., 8 min at 50° C., 5 min at 95° C. 32 cycles of PCR were performed, each cycle consisting of 30 sec at 94° C., 30 sec at 58° C., and 30 sec at 72° C. The 32nd cycle included a 10 min elongation step at 72° C. to ensure full extension of incomplete DNA fragments.

For series [3], the system named is bladder tissue. Put plainly: Cystitis evaluation of formulations in mice, bladder histopathology. The note with it: 80 μL intravesical, 7-day interval; 7 mM Big CHAP, 0.05 mM TRITON X-100 or 22% ethanol.
Description: The formulations were administered intravesically in a volume of 80 μL, and animals were observed over a 7-day interval. After sacrifice, bladders were paraffin-embedded, sectioned, and stained with hematoxylin and eosin for pathologic evaluation.
In series [4] the test system is bladder. As to the kind of experiment: Gene transfer activity of water-soluble Syn3 analogs in vivo, whole organ Xgal staining. More on the design: species or system rat. The following applies: for gene transfer activity compared to controls: 1 mg/ml. As for the experimental part:
A concentration of 1 mg/ml was chosen for initial testing of both compounds.
The solution of A-TMA was prepared by dissoluting 10 mg of A-TMA into 10 ml Dulbecco's PBS. Glycerol was added to provide a final concentration of 10 mg/ml. All solutions were sterile filtered prior to use (0.2 μm Acrodisc syring filter). The virus (BGCG 70AAB) was diluted 1:10 into either this A-TMA solution, or into Dulbecco's PBS-glycerol prior to administration.
Ten mg of A-HCl was dissoluted into this buffer and sterile filtered prior to use (0.2 μm Acrodisc suring filter). The virus (BGCG 70AAB) was diluted 1:10 into this solution prior to administration. For comparison, the virus diluted into this buffer without A-HCl was also tested.
Female HSD rats were anesthetized using isofluorane. The rats were transuretherally catheterized into the bladder using PE50 tubing lubricated with K-Y jelly. A tie-off was installed on the external urethra to prevent back leakage. Urine, if any, was removed and the bladder was flushed with 0.5 ml PBS and emptied. rAd was diluted to the desired concentration (1:10) and instilled for 45 minutes. The dosing material was removed, noting the return volume. The bladder was flushed with 0.5 ml PBS and emptied. The tie-off and catheter were removed, and the animals were allowed to recover in cages.
After 48 hours, the animals were sacrificed and their bladders inflation fixed with 0.5 ml fixative for 1 hour. The bladders were then rinsed overnight and whole organ Xgal staining was conducted.

Series [5] in a line: Solubility and dissolution behaviour. It counts as physicochemical.
Series [6] concerns bladder urothelium. As to the kind of experiment: Histological examination of Syn3 treated bladders (infiltrates). The format is in vivo, rat. The following applies: for inflammation / infiltration at lower concentration of Syn3: 0.25 mg/ml compared with 0.5 mg/ml, decreasing concentrations in Big CHAP or Tween 80. As for the experimental part: (§1) Following removal of virus and flushing of the bladder, the animals were allowed to recover. After 48 hours the animals were sacrificed, their bladders fixed, and stained for β-gal expression. Following photographic recording, bladders were embedded in paraffin for sectioning and histological examination.
Bladders from animals treated with Syn3-rAd (β-Gal) were prepared for histological examination to determine the levels of viral infection, as well as the degree of viral penetration into the bladder urothelium.

The test system of series [7] is bladder. As to the kind of experiment: Gene transfer activity of Syn3 in Big CHAP or Tween-80, β-galactosidase expression in bladder. It counts as in vivo, rat. The following applies: for gene transfer activity / β-gal expression: 0.5 mg/ml in 7.8 mM Big CHAP. As for the experimental part: as §1
The nature of series [8]: Stability of Syn3 in solution. It counts as physicochemical. The method, then: However, if left at room temperature at this high concentration (100 mg/ml), it will solidify within 24 hours.
The test system of series [9] is bladder epithelium. Put plainly: rAd-βgal gene transfer to bladder epithelium in detergent formulations, Xgal staining score and gross pathology. The following applies: detergents at their critical micellization concentration. The method, then: rAd-βgal was formulated in different detergents at their critical micellization concentration to evaluate efficiency of gene transfer to the bladder epithelium. Female rats (about 200 g b/w, Harlan Sprague Dawley) were anesthetized with isoflurane and received a single intravesical administration of rAd-βgal (1×10^11 PN/ml) in different detergent formulations (see Table I). Before instillation, bladders were flushed with PBS and then emptied. rAd-βgal was then instilled in a volume of 0.5 ml. The instilled solution was retained in the bladder for 45 minutes. The bladders were then flushed with PBS, and the animals were permitted to recover from the procedure. 48 hours after administration, the rats were sacrificed, the bladders harvested, and fixed in formalin. After fixation, the bladders were opened longitudinally so that the urothelium was exposed to the chromogen (Xgal), that is converted to a blue color, if reporter gene (β-galactosidase) expression is present. The luminal epithelial surface of the whole bladder was photographed an blue staining scored: + (minimal staining), ++ (moderate staining), +++ intense staining covering the whole bladder epithelial surface.
Briefly, in anaesthetized female rats rAd-βgal (1×10^11 PN/ml) was administered into the bladder via an intravesical catheter. rAd-βgal was formulated in different concentrations of Big CHAP (CALBIOCHEM®). A volume of 0.5 ml was injected and remained instilled in the bladder for 45 minutes. The animals were sacrificed 48 hours later, the bladder fixed in 4% formalin/glutaraldehyde, opened longitudinally, and the β-galactosidase enzyme activity measured using Xgal substrate. The intensity of blue staining correlates with the βgal-transgene expression.
Effects of higher recombinant adenovirus concentrations were also tested. Briefly, in anaesthetized female rats different concentrations of rAd-βgal, formulated in 7 mM Big CHAP (CALBIOCHEM®) were administered into the bladder via an intravesical catheter. The animals were sacrificed 48 hours later, the bladder fixed in 4% formalin/glutaraldehyde, opened longitudinally, and Xgal stained.

As for `CCO` [ethanol], the “β-galactosidase expression of the transitional bladder epithelium (histologic evaluation)” value in series [1] (ethanol added to the adenovirus formulation) is “increased β-galactosidase expression”. Moreover, the “β-galactosidase expression in the luminal epithelial surface” value in [1] (rAd-βgal 1.7×10^11 PN/mL diluted in 30% (v/v) ethanol, intravesical 45 min, 2 days after administration) is reported as “greatly enhanced”. Moreover, the “ACNRB expression in bladder (RT-PCR)” value is given as “enhanced expression” in series [2] (ACNRB 4×10^10 PN/mL in 22% (v/v) ethanol or 3 mM Big CHAP versus VPBS, 48 hours) and “Increased ACNRB expression” in series [2] (ACNRB in 30% (v/v) ethanol compared to VPBS, 2 days). Moreover, the “macrophage infiltration into the bladder tissue / cystitis” value in series [3] is “significant cystitis”.
For the compound `C[C@H](CCC(=O)NCCCN(CCC[N+](C)(C)C)C(=O)CC[C@@H](C)[C@H]1CC[C@H]2[C@@H]3[C@H](O)C[C@@H]4C[C@H](O)CC[C@]4(C)[C@H]3C[C@H](O)[C@]12C)[C@H]1CC[C@H]2[C@@H]3[C@H](O)C[C@@H]4C[C@H](O)CC[C@]4(C)[C@H]3C[C@H](O)[C@]12C.[Cl-]` [A-TMA], the “gene transfer activity compared to controls” value in [4] is listed as “significantly above those levels obtained by controls”. Further, the “gene transfer activity” value in series [4] (individual animals, 1 mg/ml in PBS/1% Glycerol (A-TMA) or Buffer D (A-HCl)) is given as “+ +”.
As to `CC(CCC(=O)NCCCN(CCCNC(=O)C(O)C(O)C(OC1OC(CO)C(O)C(O)C1O)C(O)CO)C(=O)CCC(C)C1CCC2C3C(O)CC4CC(O)CCC4(C)C3CC(O)C12C)C1CCC2C3C(O)CC4CC(O)CCC4(C)C3CC(O)C12C` (stereo not drawn) [Syn3], the gene transfer activity result was “++++” in [4] (summary, Concentration 1 mg/ml); “Very high levels of gene transfer” in series [7] (0.25 mg/ml in 3.9 mM Big CHAP); “high levels of gene transfer activity” in series [7] (0.25 mg/ml in 3.9 mM Big CHAP, listed as I3A); “more regions lacking β-galactosidase expression; also recorded: slightly reduced” in [7] (0.5 mg/ml in 0.05% Tween-80); “found to enhance gene transfer; also recorded: can enhance gene transfer; also recorded: very high levels of gene transfer; also recorded: consistently high levels of gene transfer; also recorded: effective in enhancing gene transfer; also recorded: Approximately equal levels of gene transfer” in [7] (1 mg/ml in 0.1% Tween 80); “very high levels of gene transfer; also recorded: High levels of β-galactosidase activity” in series [7] (1 mg/ml in 0.1% Tween 80, listed as I3A). Also, the “dissolution in Tween 80” value in [5] (1 mg/ml in 0.1% Tween 80) is given as “clear solution; also recorded: readily solubilized”. Also, the “behaviour on dissolution in water” value is on record as “appeared to form vesicles” in series [5] (1 mg/ml in water) and “formed a gel” in [5] (10 mg/ml in water). Besides, the “amount of Syn3 that dissolutes” value in [5] (into 15 mM Big CHAP) is given as “Up to 5 mg/ml”. Moreover, the “time to completely dissolute” value in [5] (into 10% Tween-80) is on record as “several hours”. For the same compound, the “inflammation / infiltration at lower concentration of Syn3” value was “proportionally lower infiltration” in series [6] and “less inflammation” in series [6] (listed as I3A). In series [6] (0.5 mg/ml in 7.8 mM Big CHAP with rAd), the “recruitment of infiltrates to the bladder” value is listed as “massive recruitment of infiltrates to the bladder”. Moreover, the infiltration entry in series [6] (Syn3 administered alone (no virus)) is “a significant amount of infiltration; also recorded: significant induction of infiltrates”. The “β-Gal expression on reducing the concentration of Syn3 (histology)” value in [6] (in either detergent) was “concomitant reduction in β-Gal expression”. Besides, the “gene transfer activity / β-gal expression” value in series [7] was “greatly enhance gene transfer and β-gal expression; also recorded: very high levels of gene transfer activity; also recorded: highest levels of β-galactosidase expression; also recorded: extremely high”; in [7] (listed as I3A) it was “High levels of gene transfer”. In addition, the gene transfer result in series [7] (1 mg/ml in 0.4% Tween-80) is “almost no gene transfer”. In series [7] (rat, in vivo), the “gene transfer, 0.5 mg/ml in 7.8 mM Big CHAP compared with 1 mg/ml in 0.1% Tween-80” value is recorded as “approximately equal levels of gene transfer enhancement; also recorded: comparable”. Besides, the “period over which gene transfer activity is retained” value in [8] (0.25 mg/ml or 0.5 mg/ml in Big CHAP, room temperature) is “at least 30 days”. The period of stability entry in series [8] (1 mg/ml in 0.1% Tween-80, longest period tested) was “at least 30 days”; in [8] (100 mg/ml in 10% Tween-80, 4° C.) it was “at least one week”. The compound also gave a time to solidify in series [8] (100 mg/ml in 10% Tween-80, room temperature) of no more than 24 h. For the same compound, the “stability (in words)” value in [8] (dissoluted into Big CHAP detergent) is listed as “very stable”.
On to `C[C@H](CCC(=O)NCCCN(CCCN)C(=O)CC[C@@H](C)[C@H]1CC[C@H]2[C@@H]3[C@H](O)C[C@@H]4C[C@H](O)CC[C@]4(C)[C@H]3C[C@H](O)[C@]12C)[C@H]1CC[C@H]2[C@@H]3[C@H](O)C[C@@H]4C[C@H](O)CC[C@]4(C)[C@H]3C[C@H](O)[C@]12C.Cl` [A-HCl], for which the “gene transfer activity compared to controls” value in series [4] is listed as “significantly above those levels obtained by controls”. Further, the solubility in saline result in series [5] was “not completely soluble in saline”. In series [5] (dissolution into dH2O), this compound showed a pH of solution of 4.7.
Consider Triton X-100 [reference compound], for which the “gene transfer to the bladder epithelium (Table I)” value in series [9] is reported as “enhanced gene transfer dramatically”. The “macrophage infiltration into the bladder tissue / cystitis” value in series [3] was “slight to mild”.
